Experimental data reported in US20160008490A1, “METAL CHELATE COMPOUNDS FOR BINDING TO THE PLATELET SPECIFIC GLYCOPROTEIN IIB/IIIA” (BAYER PHARMA AKTIENGESELLSCHAFT, priority 2013, published 2016).

What was measured:
[1] = test system: in vitro platelet-rich thrombi; assay: Magnetic resonance imaging of in vitro platelet-rich thrombi; format: cell-based, human; conditions: 10 μmol substance/L, 20 min incubation, washed three times with plasma, 1.5 T, versus control thrombus without contrast agent
Method: Magnetic resonance imaging of in vitro platelet-rich thrombi and incubation solution (example 8) using a 3D turbo spin echo sequence (1.5 T, Siemens Avanto, small extremity coil, TR 1050 ms, TE 9.1 ms, 0.5×0.5×0.6 mm^3). In FIG. 2a an in vitro control thrombus without the addition of a contrast agent is shown. The signal intensity of the control thrombus is slightly higher than the surrounding medium but clearly lower than the signal of the in vitro thrombus which was incubated with example 8 as depicted in FIG. 2b. In FIG. 2c the incubation solution with a final concentration of 10 μmol substance/L of example 8 in human plasma is represented. The signal intensity is higher than the surrounding plasma solutions in the in vitro platelet-rich thrombi 2a and 2b.
The in vitro thrombus in FIG. 2b is incubated with the solution which is depicted in FIG. 2c. After 20 min incubation period the thrombi was washed three times with plasma solution.
The MRI imaging experiments were done with platelet-rich plasma. The preparation of platelet-rich plasma using fresh blood is described in L K Jennings et. al. Blood 1986 1, 173-179 but modified with regard to centrifugation procedure. Briefly, fresh blood was taken from a volunteer using 10 mL citrate-tubes (Sarstedt S-Monovette 02.1067.001, 10 mL, Citrate 3.13%). The 10 mL citrate-tubes were carefully inverted 10 times to mix blood and anticoagulant. […]

[2] = Relaxivity measurements at 1.41 T in water and plasma; format: physicochemical; conditions: relaxivity normalized to Gd, 37° C.
Method: Relaxivity measurements at 1.41 T were performed using a MiniSpec mq60 spectrometer (Bruker Analytik, Karlsruhe) operating at a resonance frequency of 60 MHz and a temperature of 37° C. The T1 relaxation times were determined using the standard inversion recovery method. The T2 measurements were done by using the Carr-Purcell-Meiboom-Gill (CPMG) pulse sequence. All measurements were done at concentrations between 0.05 mM and 1 mM of Gd in water and plasma.
The relaxivities ri (where i=1, 2) were calculated on the basis of the measured relaxation rates Ri in water and plasma:
where Ri(0) represent the relaxation rate of the respective solvent and CGd the concentration of the compound normalized to the Gadolium.

[3] = test system: human activated platelets; assay: Binding of investigated compounds to human activated platelets (ICP-MS of Gd in pellet and supernatant); format: cell-based; conditions: incubation concentration 1 μM molecule
Method: For each experiment fresh blood was taken from a volunteer using 10 mL citrate-tubes (Sarstedt S-Monovette 02.1067.001, 10 mL, Citrate 3.13%). The 10 mL citrate-tubes were carefully inverted 10 times to mix blood and anticoagulant. The tubes were stored in an incubator at a temperature of 37° C. until centrifugation (Heraeus miniTherm CTT with integrated rotation- and turning device, turning speed: 19 rotations per minute, Heraeus Instruments GmbH, Hanau/Germany).
For plasma preparation tube centrifugation was carried out for 15 minutes at 1811 g at room temperature (Eppendorf, Centrifuge 5810R). Blood was centrifuged 15 minutes at 201 g at room temperature to produce platelet-rich plasma. The tubes were stored for 30 min at room temperature to get a better separation. The separated platelet-rich plasma was finally centrifuged for further 3 min at 453 g to remove the remaining erythrocytes. The platelet-rich plasma was activated using a final concentration of 5 μM Adenosindiphosphate (ADP, Sigma). The activated platelet-rich plasma was incubated 20 minutes with different concentrations of gadolinium-labeled compound and subsequently was centrifuged 3 minutes at 1360 g. 20 μL of incubation solution was taken to determine the concentration (n=3). […] The gadolinium concentration of supernatant and pellet was determined using an inductively coupled plasma mass spectrometry (ICP-MS Agilent 7500a).
The results for incubation concentration of 1 μM gadolinium-labeled compound are summarized in table 3 (in comparison to Gadovist® standard dose: 100 μmol Gd/kg body weight).

CC(C(=O)NCC(=O)NC[C@H](NC(=O)CNC(=O)C(C)N1CCN(CC(=O)O)CCN(CC(=O)O)CCN(CC(=O)O)CC1)C(=O)NC[C@H](NC(=O)[C@H](CNC(=O)CNC(=O)C(C)N1CCN(CC(=O)O)CCN(CC(=O)O)CCN(CC(=O)O)CC1)NC(=O)CNC(=O)C(C)N1CCN(CC(=O)O)CCN(CC(=O)O)CCN(CC(=O)O)CC1)C(=O)NCCCCc1cccc(C#Cc2cncc([C@H](CC(=O)O)NC(=O)[C@@H]3CCCN(C(=O)CCC4CCNCC4)C3)c2)c1)N1CCN(CC(=O)O)CCN(CC(=O)O)CCN(CC(=O)O)CC1 (some centres unmarked) [Example 8]
signal intensity of incubated in vitro thrombus (T1-weighted 3D TSE MRI) [1]: clearly higher signal than the control thrombi | r1 plasma ([2]; plasma): 14.5 L/mmol/s | r1 water ([2]; water): 12.6 L/mmol/s | Concentration within platelet pellet ([3]; ADP-activated platelet-rich plasma, 20 minutes, pellet washed): 26.7 ± 1.5 μM Gd | pellet/supernatant ([3]; ratio of Gd concentration): 254 ± 26 (n = 3)
